PubChem BioAssay (NCI)
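Method: 48-hour compound exposure of cells in 96-well plates, five concentrations, linear interpolation of endpoints. The concentration for 50% growth inhibition is given as GI50. TGI is the concentration that stops growth completely.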

Legend:
Experiment in all cases: DTP human tumour cell line panel, 48 h
[1] = tested on: UACC-257 melanoma
[2] = tested on: K-562 leukemia
[3] = tested on: RPMI-8226 leukemia
[4] = tested on: OVCAR-8 ovarian
[5] = tested on: U251 CNS
[6] = tested on: HOP-92 NSCLC
[7] = tested on: A549 NSCLC
[8] = tested on: UO-31 renal
[9] = tested on: SF-268 CNS
[10] = tested on: NCI-H226 lung
[11] = tested on: SK-MEL-28 melanoma
[12] = tested on: OVCAR-3 ovarian
[13] = tested on: LOX IMVI melanoma
[14] = tested on: HCT-116 colon
[15] = tested on: HCT-15 colon
[16] = tested on: SK-MEL-2 melanoma
[17] = tested on: NCI-H522 lung
[18] = tested on: LXFL 529 NSCLC
[19] = tested on: KM12 colon
[20] = tested on: HT29 colon
[21] = tested on: HOP-18 NSCLC
[22] = tested on: HCC-2998 colon
[23] = tested on: SN12C renal
[24] = tested on: NCI-H460 lung
[25] = tested on: CCRF-CEM leukemia
[26] = tested on: MALME-3M melanoma
[27] = tested on: SK-MEL-5 melanoma
[28] = tested on: M14 melanoma
[29] = tested on: HL-60(TB) leukemia
[30] = tested on: IGROV1 ovarian
[31] = tested on: NCI-H23 lung
[32] = tested on: OVCAR-5 ovarian
[33] = tested on: SW-620 colon
[34] = tested on: ACHN renal
[35] = tested on: M19-MEL melanoma
[36] = tested on: SF-539 CNS
[37] = tested on: A498 renal
[38] = tested on: EKVX NSCLC
[39] = tested on: UACC-62 melanoma
[40] = tested on: MOLT-4 leukemia
[41] = tested on: SNB-19 CNS
[42] = tested on: SF-295 CNS
[43] = tested on: SNB-75 CNS
[44] = tested on: SK-OV-3 ovarian
[45] = tested on: CAKI-1 renal
[46] = tested on: 786-0 renal
[47] = tested on: KM20L2 colon
[48] = tested on: HOP-62 NSCLC
[49] = tested on: DLD-1 colon
[50] = tested on: OVCAR-4 ovarian
[51] = tested on: COLO 205 colon

Q: How did the GI50 [1] turn out when CC(=O)[CH-]C(=O)c1ccccc1.CC(=O)[CH-]C(=O)c1ccccc1.[O-]c1ccc2c(c1)OCO2.[O-]c1ccc2c(c1)OCO2.[Ti+4] was run?
A: The GI50 was 44 µM.

Q: What about the TGI [1] of the same molecule?
A: The TGI was over 100 µM.

Q: What about the GI50 [2] of the same molecule?
A: The GI50 was 31.5 µM.

Q: And the TGI [2]?
A: Its TGI is over 100 µM.

Q: What about the GI50 [3] of the same molecule?
A: Its GI50 is 18.3 µM.

Q: What about the TGI [3] of the same molecule?
A: The TGI was 50.9 µM.

Q: What about the GI50 [4] of the same molecule?
A: The GI50 was 34.4 µM.

Q: What about the TGI [4] of the same molecule?
A: Its TGI is over 100 µM.

Q: What about the GI50 [5] of the same molecule?
A: The GI50 was 22.2 µM.

Q: What about the TGI [5] of the same molecule?
A: The TGI was over 100 µM.

Q: And the GI50 [6]?
A: Its GI50 is 21.1 µM.

Q: And the TGI [6]?
A: Its TGI is over 100 µM.

Q: And the GI50 [7]?
A: Its GI50 is 41.7 µM.

Q: What about the TGI [7] of the same molecule?
A: Its TGI is over 100 µM.

Q: What about the GI50 [8] of the same molecule?
A: The GI50 was 35.9 µM.

Q: What about the TGI [8] of the same molecule?
A: Its TGI is 94.3 µM.

Q: And the GI50 [9]?
A: Its GI50 is 33.6 µM.

Q: What about the TGI [9] of the same molecule?
A: The TGI was over 100 µM.

Q: What about the GI50 [10] of the same molecule?
A: Its GI50 is 24.9 µM.

Q: What about the TGI [10] of the same molecule?
A: The TGI was 85 µM.

Q: What about the GI50 [11] of the same molecule?
A: Its GI50 is 32.7 µM.

Q: What about the TGI [11] of the same molecule?
A: Its TGI is over 100 µM.

Q: And the GI50 [12]?
A: Its GI50 is 26.8 µM.

Q: And the TGI [12]?
A: Its TGI is over 100 µM.

Q: What about the GI50 [13] of the same molecule?
A: Its GI50 is 18.2 µM.

Q: And the TGI [13]?
A: Its TGI is 55 µM.

Q: And the GI50 [14]?
A: The GI50 was 37 µM.

Q: And the TGI [14]?
A: Its TGI is over 100 µM.

Q: And the GI50 [15]?
A: The GI50 was 34.4 µM.

Q: And the TGI [15]?
A: Its TGI is over 100 µM.

Q: What about the GI50 [16] of the same molecule?
A: Its GI50 is 22.5 µM.

Q: What about the TGI [16] of the same molecule?
A: Its TGI is 57.7 µM.

Q: What about the GI50 [17] of the same molecule?
A: Its GI50 is 16.5 µM.

Q: And the TGI [17]?
A: Its TGI is 42.1 µM.

Q: And the GI50 [18]?
A: The GI50 was 19.3 µM.

Q: What about the TGI [18] of the same molecule?
A: Its TGI is 49.9 µM.

Q: What about the GI50 [19] of the same molecule?
A: Its GI50 is 16.2 µM.

Q: And the TGI [19]?
A: The TGI was 38.2 µM.

Q: And the GI50 [20]?
A: The GI50 was 26.8 µM.

Q: What about the TGI [20] of the same molecule?
A: The TGI was over 100 µM.

Q: And the GI50 [21]?
A: Its GI50 is 37.7 µM.

Q: What about the TGI [21] of the same molecule?
A: Its TGI is over 100 µM.

Q: And the GI50 [22]?
A: Its GI50 is 24.6 µM.

Q: And the TGI [22]?
A: Its TGI is 61.6 µM.

Q: What about the GI50 [23] of the same molecule?
A: Its GI50 is 43.9 µM.

Q: And the TGI [23]?
A: The TGI was over 100 µM.

Q: And the GI50 [24]?
A: The GI50 was 21.1 µM.

Q: What about the TGI [24] of the same molecule?
A: The TGI was 72.6 µM.

Q: And the GI50 [25]?
A: The GI50 was 3.66 µM.

Q: And the TGI [25]?
A: The TGI was 30.3 µM.

Q: What about the GI50 [26] of the same molecule?
A: The GI50 was 23.1 µM.

Q: And the TGI [26]?
A: Its TGI is 50.2 µM.

Q: And the GI50 [27]?
A: The GI50 was 29.1 µM.

Q: And the TGI [27]?
A: The TGI was 78.6 µM.

Q: And the GI50 [28]?
A: The GI50 was 20.2 µM.

Q: What about the TGI [28] of the same molecule?
A: The TGI was 44.4 µM.

Q: And the GI50 [29]?
A: Its GI50 is 10.7 µM.

Q: What about the TGI [29] of the same molecule?
A: Its TGI is 48 µM.

Q: What about the GI50 [30] of the same molecule?
A: The GI50 was 34.5 µM.

Q: And the TGI [30]?
A: Its TGI is over 100 µM.

Q: What about the GI50 [31] of the same molecule?
A: The GI50 was 22.4 µM.

Q: And the TGI [31]?
A: The TGI was 64.4 µM.

Q: What about the GI50 [32] of the same molecule?
A: Its GI50 is 31.9 µM.

Q: And the TGI [32]?
A: Its TGI is over 100 µM.

Q: What about the GI50 [33] of the same molecule?
A: The GI50 was 32.1 µM.

Q: And the TGI [33]?
A: The TGI was over 100 µM.

Q: And the GI50 [34]?
A: The GI50 was 31.6 µM.

Q: What about the TGI [34] of the same molecule?
A: The TGI was over 100 µM.

Q: What about the GI50 [35] of the same molecule?
A: Its GI50 is 21.9 µM.

Q: And the TGI [35]?
A: Its TGI is 54.5 µM.

Q: What about the GI50 [36] of the same molecule?
A: The GI50 was 28.4 µM.

Q: And the TGI [36]?
A: Its TGI is over 100 µM.

Q: What about the GI50 [37] of the same molecule?
A: Its GI50 is 32.7 µM.

Q: And the TGI [37]?
A: Its TGI is 64.8 µM.

Q: And the GI50 [38]?
A: The GI50 was 25.8 µM.

Q: And the TGI [38]?
A: The TGI was 72.9 µM.

Q: And the GI50 [39]?
A: Its GI50 is 47.5 µM.

Q: What about the TGI [39] of the same molecule?
A: The TGI was over 100 µM.

Q: And the GI50 [40]?
A: Its GI50 is 15.4 µM.

Q: And the TGI [40]?
A: Its TGI is 51.5 µM.

Q: What about the GI50 [41] of the same molecule?
A: The GI50 was 20.8 µM.

Q: And the TGI [41]?
A: The TGI was 69.7 µM.

Q: What about the GI50 [42] of the same molecule?
A: The GI50 was 30.6 µM.

Q: What about the TGI [42] of the same molecule?
A: The TGI was over 100 µM.

Q: What about the GI50 [43] of the same molecule?
A: The GI50 was 19.2 µM.

Q: And the TGI [43]?
A: The TGI was 66.1 µM.

Q: What about the GI50 [44] of the same molecule?
A: The GI50 was 30.1 µM.

Q: And the TGI [44]?
A: Its TGI is over 100 µM.

Q: And the GI50 [45]?
A: The GI50 was 29.5 µM.

Q: And the TGI [45]?
A: Its TGI is over 100 µM.

Q: And the GI50 [46]?
A: The GI50 was 21.1 µM.

Q: And the TGI [46]?
A: The TGI was 80.7 µM.

Q: And the GI50 [47]?
A: The GI50 was 67.9 µM.

Q: And the TGI [47]?
A: The TGI was over 100 µM.

Q: What about the GI50 [48] of the same molecule?
A: The GI50 was 20.4 µM.

Q: And the TGI [48]?
A: Its TGI is 93.8 µM.

Q: What about the GI50 [49] of the same molecule?
A: Its GI50 is 38.3 µM.

Q: And the TGI [49]?
A: The TGI was over 100 µM.

Q: What about the GI50 [50] of the same molecule?
A: The GI50 was 31.8 µM.

Q: What about the TGI [50] of the same molecule?
A: Its TGI is over 100 µM.

Q: And the GI50 [51]?
A: The GI50 was 32 µM.

Q: And the TGI [51]?
A: The TGI was over 100 µM.
